Measured values from paper PMC2873071 (Nature chemical biology, 2010).

Molecular target: T1, glucocerebrosidase (GC; Cerezyme, recombinant WT GC) (Homo sapiens, UniProt P04062)
T1 sequence (P04062 40-536): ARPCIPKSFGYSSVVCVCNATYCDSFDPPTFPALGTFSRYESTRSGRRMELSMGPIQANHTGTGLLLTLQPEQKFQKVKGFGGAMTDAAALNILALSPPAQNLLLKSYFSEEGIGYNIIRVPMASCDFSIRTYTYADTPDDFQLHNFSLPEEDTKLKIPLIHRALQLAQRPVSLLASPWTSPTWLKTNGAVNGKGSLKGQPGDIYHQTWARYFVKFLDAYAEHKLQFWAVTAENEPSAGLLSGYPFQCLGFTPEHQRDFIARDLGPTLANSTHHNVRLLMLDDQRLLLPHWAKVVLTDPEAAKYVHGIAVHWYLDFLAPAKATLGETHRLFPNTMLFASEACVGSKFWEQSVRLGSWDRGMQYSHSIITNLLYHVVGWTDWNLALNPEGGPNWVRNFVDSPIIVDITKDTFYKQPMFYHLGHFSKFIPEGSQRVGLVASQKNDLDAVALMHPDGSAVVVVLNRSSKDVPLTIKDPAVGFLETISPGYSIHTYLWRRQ
Test: in vitro enzyme inhibition assay with recombinant GC
Format: biochemical

- IC50: ~90 µM
SMILES: O=C1CN(/N=C/c2ccc(-c3ccc([N+](=O)[O-])cc3)o2)C(O)=N1 [compound 3, dantrolene]
